Source: the supplement of paper PMC10307832

What was measured:
Test in all cases: relative viability (nuclei count vs DMSO), 5 days (fraction); higher = more cells survive
Bortezomib + Palbociclib = compound: CC(C)C[C@H](NC(=O)[C@H](Cc1ccccc1)NC(=O)c1cnccn1)B(O)O [Bortezomib] + CC(=O)c1c(C)c2cnc(Nc3ccc(N4CCNCC4)cn3)nc2n(C2CCCC2)c1=O [Palbociclib] (partner 0.5 µM)
Procedure, shortened: (§1)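 Lung cancer cell lines in 1536-well plates got either a single drug or a fixed anchor-drug dose together with five library-drug doses (not always all listed) in √10 steps, by pin tool, on the day after seeding. Nuclei were counted after 5 days, and relative viability is the treated-to-vehicle ratio of nuclei counts. Values are medians of duplicate plates.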

Obatoclax + Pemetrexed = compound: COC1=CC(c2cc3ccccc3[nH]2)=N/C1=C\c1[nH]c(C)cc1C [Obatoclax] + Nc1nc2[nH]cc(CCc3ccc(C(=O)N[C@@H](CCC(=O)O)C(=O)O)cc3)c2c(=O)[nH]1 [Pemetrexed] (partner 0.2 µM)
Procedure, shortened: as §1

Bortezomib + Foretinib = compound: CC(C)C[C@H](NC(=O)[C@H](Cc1ccccc1)NC(=O)c1cnccn1)B(O)O [Bortezomib] + COc1cc2c(Oc3ccc(NC(=O)C4(C(=O)Nc5ccc(F)cc5)CC4)cc3F)ccnc2cc1OCCCN1CCOCC1 [Foretinib] (partner 0.25 µM)
Procedure, shortened: as §1

[1] = compound: CC1=CC(=NN1)NC2=CC(=NC(=N2)/C=C/C3=CC=CC=C3)N4CCN(CC4)C + N=C(N)NC(=N)NCCc1ccccc1 [Phenformin] (partner 250 µM)
Procedure, shortened: as §1

Cell Line	relative viability (Bortezomib + Palbociclib; first compound 0.0002 µM)	relative viability (Bortezomib + Palbociclib; first compound 0.000632 µM)	relative viability (Bortezomib + Palbociclib; first compound 0.002 µM)	relative viability (Bortezomib + Palbociclib; first compound 0.006325 µM)	relative viability (Bortezomib + Palbociclib; first compound 0.02 µM)	relative viability (Obatoclax + Pemetrexed; first compound 0.01 µM)	relative viability (Obatoclax + Pemetrexed; first compound 0.03162 µM)	relative viability (Obatoclax + Pemetrexed; first compound 0.1 µM)	relative viability (Obatoclax + Pemetrexed; first compound 0.3162 µM)	relative viability (Obatoclax + Pemetrexed; first compound 1 µM)	relative viability (Bortezomib + Foretinib; first compound 0.0002 µM)	relative viability (Bortezomib + Foretinib; first compound 0.000632 µM)	relative viability (Bortezomib + Foretinib; first compound 0.002 µM)	relative viability (Bortezomib + Foretinib; first compound 0.006325 µM)	relative viability (Bortezomib + Foretinib; first compound 0.02 µM)	relative viability ([1]; first compound 0.08 µM)	relative viability ([1]; first compound 0.253 µM)	relative viability ([1]; first compound 0.8 µM)	relative viability ([1]; first compound 2.53 µM)	relative viability ([1]; first compound 8 µM)
NCI-H1355	0.394	0.4	0.398	0.24	0.138	1.05	0.994	1.06	1	0.966	0.944	0.983	0.998	0.155	0.14	0.484	0.423	0.435	0.26	0.148
NCI-H1395	0.591	0.614	0.38	0.31	0.253	0.84	0.781	0.827	0.711	0.657	1.01	0.927	0.759	0.341	0.328	0.494	0.434	0.427	0.327	0.264
NCI-H1437	0.305	0.35	0.319	0.135	0.118	0.305	0.344	0.324	0.307	0.319	1.31	1.24	1.32	0.185	0.149	0.3	0.331	0.307	0.16	0.107
NCI-H1650	0.342	0.312	0.136	0.117	0.146	0.397	0.356	0.361	0.377	0.331	1.19	1.15	0.223	0.16	0.164	0.418	0.404	0.464	0.106	0.0916
NCI-H1651	0.505	0.504	0.401	0.113	0.103	0.591	0.439	0.528	0.373	0.603	0.788	0.772	0.423	0.101	0.112	0.355	0.346	0.312	0.124	0.112
NCI-H1666	0.62	0.699	0.608	0.569	0.472	0.835	0.775	0.823	0.725	0.633	0.868	0.945	0.884	0.289	0.316	0.62	0.556	0.542	0.391	0.302
NCI-H1734	0.38	0.342	0.266	0.108	0.0922	0.419	0.427	0.359	0.415	0.364	0.786	0.9	0.759	0.176	0.109	0.417	0.375	0.391	0.162	0.104
NCI-H1755	0.426	0.438	0.452	0.263	0.248	0.444	0.612	0.433	0.413	0.452	0.939	0.972	0.868	0.494	0.192	0.658	0.616	0.551	0.333	0.221
NCI-H1793	0.336		0.375	0.205	0.143	0.91	0.924	0.727	0.838	0.878	0.611	0.617	0.666	0.512	0.155	0.344	0.423	0.314	0.132	0.121
NCI-H1915	0.476	0.519	0.54	0.118	0.0404	0.486	0.496	0.482	0.535	0.517	1.05	1.12	1.1	0.112	0.0806	0.368	0.393	0.337	0.234	0.165
NCI-H1944	0.315	0.309	0.336	0.21	0.15	0.649	0.551	0.638	0.608	0.602	0.791	0.818	0.87	0.724	0.199	0.195	0.225	0.186	0.166	0.119
NCI-H1975	0.663	0.517	0.138	0.1	0.106	0.298	0.297	0.3	0.309	0.208	0.927	0.926	0.132	0.104	0.107	0.409	0.397	0.388	0.138	0.118
NCI-H1993	0.569	0.737	0.666	0.369	0.359	0.593	0.544	0.727	0.545	0.346	0.802	0.755	0.912	0.648	0.479	0.462	0.492	0.427	0.498	0.437
NCI-H2009	0.241	0.205	0.176	0.0661	0.0466	0.978	1.05	0.974	0.993	0.471	1.14	1.21	1.23	0.237	0.0866	0.501	0.503	0.492	0.27	0.148
NCI-H2023	0.303	0.345	0.332	0.0803	0.0773	0.3	0.217	0.24	0.188	0.134	0.911	0.802	1.06	0.282	0.0757	0.366	0.517	0.382	0.0903	0.0763
NCI-H2085	0.464	0.475	0.458	0.253	0.232	0.886	1	0.705	0.709	0.298	1.04	1.08	1.05	0.273	0.199	0.653	0.769	0.679	0.279	0.236
NCI-H2087	0.218	0.246	0.156	0.0525	0.036	0.623	0.675	0.688	0.674	0.473	0.972	0.975	0.794	0.0688	0.059	0.536	0.318	0.488	0.105	0.1
NCI-H2126	0.365	0.349	0.369	0.328	0.208	0.661	0.62	0.703	0.704	0.649	1.08	1.03	1.12	1.02	0.21	0.518	0.557	0.525	0.365	0.227
NCI-H2170	0.376	0.394	0.402	0.221	0.125	0.257	0.243	0.266	0.276	0.283	1.02	0.952	1.03	0.596	0.167	0.44	0.388	0.382	0.32	0.204
NCI-H2228	0.587	0.843	0.72	0.0946	0.0943	0.317	0.308	0.367	0.304	0.274	0.957	0.962	0.595	0.0857	0.0911	0.286	0.284	0.238	0.066	0.0616
NCI-H2342	0.578	0.502	0.54	0.534	0.357	0.836	0.775	0.683	0.641	0.757	1.02	0.945	0.829	0.929	0.34	0.523	0.597	0.565	0.604	0.245
NCI-H2347	0.401	0.497	0.406	0.292	0.231	0.399	0.419	0.37	0.392	0.38	0.741	1.3	1.09	0.275	0.327	0.402	0.347	0.435	0.38	0.208
NCI-H2405	0.503	0.547	0.349	0.143	0.141	1.11	1.01		1.07	0.927	1.02	1.05	0.86	0.271	0.188	0.377	0.307	0.422	0.244	0.1
NCI-H3122	0.197	0.204	0.205	0.135	0.102	0.19	0.202	0.2	0.203	0.221	0.889	0.882	0.994	0.693	0.0999	0.385	0.384	0.415	0.285	0.138
PC-3 [JPC-3]	0.521	0.583	0.413	0.285	0.227	1.07	0.933	0.925	0.645	0.476	1.04	1.05	0.346	0.163	0.121	0.456	0.475	0.498	0.472	0.437
PC-14	0.53	0.506	0.412	0.045	0.052	0.129	0.147	0.125	0.149	0.109	1.04	1.03	1.02	0.588	0.159	0.628	0.618	0.567	0.166	0.064
